Experimental data published in ChEMBL document CHEMBL1150053, “Scalarane-type bishomosester terpenes from the sponge Phyllospongia foliascens” (J Nat Prod, 1992).
In brackets after ≈: the same amount, converted by molar mass.

Tested on: KB
Assay: Cytotoxicity against human KB cells
Type: functional, cell-based

Q: How did the IC50 turn out when `CCC(O)CC(=O)O[C@@H]1C[C@@H]2[C@@]3(C)CCC[C@](C)(CC)[C@@H]3CC[C@@]2(C)[C@@H]2C[C@@H](O)C3=C(C(=O)O[C@H]3C)[C@@]12C` (some centres not stated) [PHYLLACTONE B] was run?
A: Its IC50 is 20 mg/L (≈ 37.7 µM).

Q: `CCC(O)CC(=O)O[C@@H]1C[C@@H]2[C@@]3(C)CCC[C@](C)(CC)[C@@H]3CC[C@@]2(C)[C@@H]2C[C@@H](O)C3=C(C(=O)O[C@@H]3C)[C@@]12C` (some centres not stated) [PHYLLACTONE A] was tested. Which IC50 did it give?
A: Its IC50 is 20 mg/L (≈ 37.7 µM).
